Values quoted from earlier work in PMC6155437 (Molecules : A Journal of Synthetic Chemistry and Natural …, 2017).

Key:
CYP2C9 = molecular target: T1, CYP2C9 (Homo sapiens, UniProt P11712); parameters: method as in PMID 22166891; conditions: CYP2C9-catalyzed diclofenac hydroxylation in human liver microsomes; cited from earlier work
T1 construct: tissue Corning Life Sciences; host or cells: pooled human liver microsomes (150 donors)

CYP2B6 = molecular target: T2, CYP2B6 (Homo sapiens, UniProt P20813); parameters: method as in doi:10.1007/s11419-011-0112-7; conditions: CYP2B6 activity; cited from earlier work
T2 construct: pooled human liver microsomes (0.2 mg/mL); tissue Corning Life Sciences; host or cells: pooled human liver microsomes (150 donors)
T2 sequence (P20813 1-491): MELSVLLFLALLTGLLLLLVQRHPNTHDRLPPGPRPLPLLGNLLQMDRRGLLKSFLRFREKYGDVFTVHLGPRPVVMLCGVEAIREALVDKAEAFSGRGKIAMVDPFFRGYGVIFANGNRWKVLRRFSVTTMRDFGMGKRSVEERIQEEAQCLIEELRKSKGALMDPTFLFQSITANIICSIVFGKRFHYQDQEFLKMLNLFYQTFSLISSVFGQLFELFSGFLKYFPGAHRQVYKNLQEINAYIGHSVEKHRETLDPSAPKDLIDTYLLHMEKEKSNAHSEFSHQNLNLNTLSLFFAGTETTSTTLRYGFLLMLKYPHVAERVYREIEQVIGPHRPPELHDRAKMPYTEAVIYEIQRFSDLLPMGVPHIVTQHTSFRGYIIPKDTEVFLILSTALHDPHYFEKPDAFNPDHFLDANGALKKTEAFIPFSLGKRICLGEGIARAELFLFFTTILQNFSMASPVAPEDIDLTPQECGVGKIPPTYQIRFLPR

CYP3A4 = CYP3A4 (Homo sapiens, UniProt P08684); conditions: CYP3A4 activity; cited from earlier work
Sequence of CYP3A4 (P08684 whole entry): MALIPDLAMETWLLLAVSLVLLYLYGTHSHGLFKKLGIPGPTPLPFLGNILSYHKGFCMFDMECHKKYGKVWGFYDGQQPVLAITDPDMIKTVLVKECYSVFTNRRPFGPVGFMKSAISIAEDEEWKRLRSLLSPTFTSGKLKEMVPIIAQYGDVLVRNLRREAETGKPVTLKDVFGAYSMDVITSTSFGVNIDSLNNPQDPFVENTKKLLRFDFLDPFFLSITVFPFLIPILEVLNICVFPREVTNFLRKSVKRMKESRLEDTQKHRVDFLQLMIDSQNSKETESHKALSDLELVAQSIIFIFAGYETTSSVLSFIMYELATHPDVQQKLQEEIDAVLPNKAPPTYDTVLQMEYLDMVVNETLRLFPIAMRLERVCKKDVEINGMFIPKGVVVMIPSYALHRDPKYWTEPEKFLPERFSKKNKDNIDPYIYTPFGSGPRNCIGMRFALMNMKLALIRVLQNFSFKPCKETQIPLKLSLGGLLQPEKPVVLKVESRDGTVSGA

T1 sequence (P11712 whole entry): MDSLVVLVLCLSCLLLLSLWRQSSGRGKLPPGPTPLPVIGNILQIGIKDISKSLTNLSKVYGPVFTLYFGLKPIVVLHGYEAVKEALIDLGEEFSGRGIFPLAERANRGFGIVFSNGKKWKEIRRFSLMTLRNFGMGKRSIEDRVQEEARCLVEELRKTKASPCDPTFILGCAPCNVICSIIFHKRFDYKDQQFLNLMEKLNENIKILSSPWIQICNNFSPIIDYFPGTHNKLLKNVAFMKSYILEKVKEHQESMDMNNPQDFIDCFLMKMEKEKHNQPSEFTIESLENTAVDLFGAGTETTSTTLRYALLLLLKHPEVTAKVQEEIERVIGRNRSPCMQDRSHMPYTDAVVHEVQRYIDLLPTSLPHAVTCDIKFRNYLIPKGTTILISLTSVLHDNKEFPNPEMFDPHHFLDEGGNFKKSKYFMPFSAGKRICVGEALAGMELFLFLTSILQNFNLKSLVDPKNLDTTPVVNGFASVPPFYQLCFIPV

Structure (SMILES)	Ki (CYP2C9)	Ki (CYP2B6)	IC50 (CYP3A4)
CCCCCc1cc(O)c2c(c1)OC(C)(C)[C@@H]1CCC(C)=C[C@@H]21 [THC, Δ9-tetrahydrocannabinol]	1.31 µM	2.81 µM	> 50 µM
CCCCCc1cc(O)c2c(c1)OC(C)(C)c1ccc(C)cc1-2 [cannabinol]			> 50 µM
